Experimental data: US5320955A, “10'desmethoxystreptonigrin production by Streptomyces albus” (priority 1992, dated 1994)
≈ marks a conversion by molar mass, not a printed value. Where “and” joins values, the source holds several entries; their conditions need not be identical. Equal values may be shown once. Read-outs that look alike come from different tables or passages of the source.

Columns and labels:
[1] = background statement; cited from earlier work
[2] = system: tumor; conditions: background statement; cited from earlier work
[3] = system: P388 murine leukemia; experiment: In vivo tests in mice, intraperitoneally implanted P388 murine leukemia model; conditions: intraperitoneally implanted P388, nontoxic levels
Text: ^+ In vivo tests in mice using the intraperitoneally implanted P388
lifespan compared to control groups at nontoxic levels of
10desmethoxystreptonigrin.

[4] = system: HCT/VM46 human colon cells; experiment: In vitro cytotoxicity vs. human tumor cell lines; type: cell-based; conditions: HCT/VM46, resistant to teniposide, in triplicate, each printed
Method: (§1) 10'-Desmethoxystreptonigrin was also tested for cytotoxicity in vitro against human tumor cell lines according to the method of Catino et al., "A microtitre cytotoxicity assay useful for the discovery of fermentation derived antitumor agents", Cancer Chemother., Pharmacol. 15: 240-243 (1985). Modification of the dye employed therein was made according to Scudiero et al., "Evaluation of a soluble tetrazolium/formazan assay for cell growth and drug sensitivity in culture using human and other tumor cell lines," Cancer Research 48:4827-4833,1 (1988). The assays were performed in triplicate against human ovarian (A2780DDP and A2780S) and colon (HCT-116, HCT/VM46 and HCT/VP35) tumor cell lines. Such cell lines are, for example, described by Long et al., "The effects of mitomycin on human colon carcinoma cells," J. Nat. Cancer Inst. 73: 787-792 (1984) (HCT-116) and Masuda et al., "Increased DNA repair as a mechanism of acquired resistance to cis-diamminedichloroplatinum (II) in human ovarian cancer cell lines," Cancer Research 48: 5713-5716 (1988) (A2780 ).

[5] = system: HCT/VP35 human colon cells; experiment: In vitro cytotoxicity vs. human tumor cell lines; type: cell-based; conditions: in triplicate, each printed
Method: as §1

[6] = system: HCT-116 human colon cells; experiment: In vitro cytotoxicity vs. human tumor cell lines; type: cell-based; conditions: in triplicate, each printed
Method: as §1

[7] = system: Proteus mirabilis; experiment: Antibacterial activity in vitro, agar dilution MIC; type: cell-based; conditions: SC3855, strain SC# 3855, 37° C., 18 hours, read-out: Minimum Inhibitory Concentration (MIC)
Method: (§2) The following methodology was used to determine the minimum inhibitory concentration (hereinafter referred to as MIC) of 10'-desmethoxystreptonigrin against bacteria. The test organisms were grown in 20 ml of Antiobiotic Assay Broth (Difco) by inoculating the broth (in tubes) with a loopful of the organism from a BHI (Difco) agar slant. The inoculated tubes were incubated at 37° C. for 18 to 24 hours. These cultures were assumed to contain 10^9 colony forming units (CFU) per ml. The cultures were diluted 1:100 to give a final inoculum level of 10^7 CFU; dilutions were made with Yeast-Beef Broth (Difco). The test compound was dissolved in an appropriate diluent at a concentration of 1,000 μg/ml. Two-fold dilutions were made in Yeast-Beef Broth (Difco), resulting in a range from 1000 μg/ml to 0.5 μg/ml. A 1.5 ml portion of each dilution was placed into individual petri dishes to which 13.5 ml of K-10 agar was added. The composition of K-10 agar is:
(§3) The medium was sterilized at 121° C. for 15 minutes at 15 lbs. psi.
(§4) The final drug concentration in the agar ranged from 100 μg/mL to 0.05 μg/mL. Organism growth control plates containing agar only were prepared and inoculated before and after the test plates. The organisms were applied to the agar surface of each plate with a Denly Multipoint Inoculator (which delivers approximately 0.001 mL of each inoculum) resulting in a final inoculum of 10^4 CFU on the agar plate.
(§5) The plates were incubated at 37° C. for 18 hours and the MICs determined. The MIC is the lowest concentration of compound inhibiting growth of the organism.

[8] = system: Mycobacterium fortuitum; experiment: Antibacterial activity in vitro, agar dilution MIC; type: cell-based; conditions: Mycolicibacterium fortuitum, SC8571; strain SC# 8571; 37° C., 18 hours; read-out: Minimum Inhibitory Concentration (MIC)
Method: as §2, §3, §4, §5

[9] = system: Bacillus subtilis; experiment: Antibacterial activity in vitro, agar dilution MIC; type: cell-based; conditions: SC3777, strain SC# 3777, 37° C., 18 hours, read-out: Minimum Inhibitory Concentration (MIC)
Method: as §2, §3, §4, §5

[10] = system: Pseudomonas aeruginosa; experiment: Antibacterial activity in vitro, agar dilution MIC; type: cell-based; conditions: read-out: Minimum Inhibitory Concentration (MIC)
Method: as §2, §3, §4, §5

[11] = system: Streptococcus agalactiae; experiment: Antibacterial activity in vitro, agar dilution MIC; type: cell-based; conditions: 18 hours, read-out: Minimum Inhibitory Concentration (MIC)
Method: as §2, §3, §4, §5

[12] = system: Enterobacter aerogenes; experiment: Antibacterial activity in vitro, agar dilution MIC; type: cell-based; conditions: Klebsiella aerogenes, SC10078; strain SC# 10078; 37° C., 18 hours; read-out: Minimum Inhibitory Concentration (MIC)
Method: as §2, §3, §4, §5

[13] = system: Micrococcus luteus; experiment: Antibacterial activity in vitro, agar dilution MIC; type: cell-based; conditions: SC2495, strain SC# 2495, 37° C., 18 hours, read-out: Minimum Inhibitory Concentration (MIC)
Method: as §2, §3, §4, §5

[14] = system: Serratia marcescens; experiment: Antibacterial activity in vitro, agar dilution MIC; type: cell-based; conditions: SC9783, strain SC# 9783, 37° C., 18 hours, read-out: Minimum Inhibitory Concentration (MIC)
Method: as §2, §3, §4, §5

[15] = system: Staphylococcus aureus; experiment: Antibacterial activity in vitro, agar dilution MIC; type: cell-based; conditions: 18 hours, read-out: Minimum Inhibitory Concentration (MIC)
Method: as §2, §3, §4, §5

[16] = system: Nocardia autotrophica; experiment: Antibacterial activity in vitro, agar dilution MIC; type: cell-based; conditions: Pseudonocardia autotrophica, SC8994; strain SC# 8994; 37° C., 18 hours; read-out: Minimum Inhibitory Concentration (MIC)
Method: as §2, §3, §4, §5

[17] = system: Pseudomonas cepacia; experiment: Antibacterial activity in vitro, agar dilution MIC; type: cell-based; conditions: Burkholderia cepacia, SC14164; strain SC# 14164; 37° C., 18 hours; read-out: Minimum Inhibitory Concentration (MIC)
Method: as §2, §3, §4, §5

[18] = system: Klebsiella pneumoniae; experiment: Antibacterial activity in vitro, agar dilution MIC; type: cell-based; conditions: 18 hours, read-out: Minimum Inhibitory Concentration (MIC)
Method: as §2, §3, §4, §5

[19] = system: Proteus vulgaris; experiment: Antibacterial activity in vitro, agar dilution MIC; type: cell-based; conditions: SC9416, strain SC# 9416, 37° C., 18 hours, read-out: Minimum Inhibitory Concentration (MIC)
Method: as §2, §3, §4, §5

[20] = system: Salmonella typhosa; experiment: Antibacterial activity in vitro, agar dilution MIC; type: cell-based; conditions: Salmonella enterica, SC1195 / TYPHOSA; strain SC# 1195; 37° C., 18 hours; read-out: Minimum Inhibitory Concentration (MIC)
Method: as §2, §3, §4, §5

[21] = system: Enterobacter cloacae; experiment: Antibacterial activity in vitro, agar dilution MIC; type: cell-based; conditions: SC8236, strain SC# 8236, 37° C., 18 hours, read-out: Minimum Inhibitory Concentration (MIC)
Method: as §2, §3, §4, §5

[22] = system: Shigella sonnei; experiment: Antibacterial activity in vitro, agar dilution MIC; type: cell-based; conditions: SC8449, strain SC# 8449, 37° C., 18 hours, read-out: Minimum Inhibitory Concentration (MIC)
Method: as §2, §3, §4, §5

[23] = system: Escherichia coli; experiment: Antibacterial activity in vitro, agar dilution MIC; type: cell-based; conditions: 18 hours, read-out: Minimum Inhibitory Concentration (MIC)
Method: as §2, §3, §4, §5

[24] = system: Acinetobacter calcoaceticus; experiment: Antibacterial activity in vitro, agar dilution MIC; type: cell-based; conditions: SC8333, strain SC# 8333, 37° C., 18 hours, read-out: Minimum Inhibitory Concentration (MIC)
Method: as §2, §3, §4, §5

[25] = system: Listerella monocytogenes; experiment: Antibacterial activity in vitro, agar dilution MIC; type: cell-based; conditions: strain SC# 8523; 37° C., 18 hours; read-out: Minimum Inhibitory Concentration (MIC)
Method: as §2, §3, §4, §5

[26] = system: Streptococcus faecalis; experiment: Antibacterial activity in vitro, agar dilution MIC; type: cell-based; conditions: Enterococcus faecalis, 37° C., 18 hours, read-out: Minimum Inhibitory Concentration (MIC)
Method: as §2, §3, §4, §5

[27] = system: Acinetobacter anitratus; experiment: Antibacterial activity in vitro, agar dilution MIC; type: cell-based; conditions: Acinetobacter calcoaceticus, SC14207; strain SC# 14207; 37° C., 18 hours; read-out: Minimum Inhibitory Concentration (MIC)
Method: as §2, §3, §4, §5

[28] = system: A2780S human ovarian cells; experiment: cells; type: cell-based
Method: as §1

[29] = target: protein-cysteine farnesyltransferase; experiment: Inhibition of farnesylation of p21 ras protein; type: biochemical; conditions: assay of Manne et al.; read-out: IC50 in inhibiting the farnesylation of p21 ras protein

## COC1=C(N)C(=O)c2nc(-c3nc(C(=O)O)c(C)c(-c4ccc(OC)c(OC)c4O)c3N)ccc2C1=O [streptonigrin, 5'-amino-6'-(7-amino-5,-8-dihydro-6-methoxy-5,8-dioxo-2-quinolyl)-4'-(8'-hydroxy-9',10'-dimethoxyphenyl)-3'-methyl-2'-pyridinecarboxylic acid]
[1]
  toxic effect, for example, in bone marrow depression: significant toxic effect
[2]
  activity as an antitumor antibiotic: has shown activity as an antitumor antibiotic

## COC1=C(N)C(=O)c2nc(-c3nc(C(=O)O)c(C)c(-c4cccc(OC)c4O)c3N)ccc2C1=O [10'-Desmethoxystreptonigrin, 5'-amino-6'-(7-amino-5,8-dihydro-6-methoxy-5,8-dioxo-2-quinolyl)-4'-(8'-hydroxy-9'-methoxyphenyl)-3'-methyl-2'-pyridinecarboxylic acid]
[3]
  increase in lifespan compared to control groups: no statistically significant increase
[4]
  IC50 cytotoxicity: 0.002 mg/L and < 0.001 mg/L
[4]; Homo sapiens
  IC50: 0.001 mg/L (≈ 0.0021 µM)
[5]; HCT/VP35, resistant to etoposide
  IC50 cytotoxicity: 0.002 mg/L (≈ 0.0042 µM)
[5]; Homo sapiens, HCT/VP35, HCT/VP35, resistant to etoposide
  IC50: 0.003 mg/L (≈ 0.0063 µM)
[6]; HCT-116
  IC50 cytotoxicity: 0.003 mg/L (≈ 0.0063 µM)
[6]; Homo sapiens, HCT-116, HCT-116
  IC50: 0.006 mg/L (≈ 0.0126 µM)
[7]
  MIC: 3.1 mg/L (≈ 6.51 µM)
[8]
  MIC: 50 mg/L (≈ 105 µM)
[9]
  MIC: 0.2 mg/L (≈ 0.42 µM)
[10]; SC8329, 18 h
  MIC: 6.3 mg/L (≈ 13.2 µM)
[10]; SC9545, strain SC# 9545, 37° C., 18 hours
  MIC: 1.6 mg/L (≈ 3.36 µM)
[11]; SC9287, strain SC# 9287, 37° C.
  MIC: 1.6 mg/L (≈ 3.36 µM)
[11]; SC14008, strain SC# 14008, 37° C.
  MIC: 1.6 mg/L (≈ 3.36 µM)
[12]
  MIC: 25 mg/L (≈ 52.5 µM)
[13]
  MIC: 0.4 mg/L (≈ 0.84 µM)
[14]
  MIC: 6.3 mg/L (≈ 13.2 µM)
[15]; SC1276, strain SC# 1276, 37° C.
  MIC: 0.4 mg/L (≈ 0.84 µM)
[15]; SC2399, strain SC# 2399, 37° C.
  MIC: 0.2 mg/L (≈ 0.42 µM)
[15]; SC2400, strain SC# 2400, 37° C.
  MIC: 0.2 mg/L (≈ 0.42 µM)
[15]; SC10165, strain SC# 10165, 37° C.
  MIC: 0.2 mg/L (≈ 0.42 µM)
[16]
  MIC: 3.1 mg/L (≈ 6.51 µM)
[17]
  MIC: > 25 mg/L
[18]; SC9527, strain SC# 9527, 37° C.
  MIC: 3.1 mg/L (≈ 6.51 µM)
[18]; SC10440, strain SC# 10440, 37° C.
  MIC: 3.1 mg/L (≈ 6.51 µM)
[19]
  MIC: 0.4 mg/L (≈ 0.84 µM)
[20]
  MIC: 1.6 mg/L (≈ 3.36 µM)
[21]
  MIC: > 100 mg/L
[22]
  MIC: 1.6 mg/L (≈ 3.36 µM)
[23]; SC8294, strain SC# 8294, 37° C.
  MIC: 3.1 mg/L (≈ 6.51 µM)
[23]; SC10857, strain SC# 10857, 37° C.
  MIC: 0.8 mg/L (≈ 1.68 µM)
[23]; SC10896, strain SC# 10896, 37° C.
  MIC: 0.4 mg/L (≈ 0.84 µM)
[23]; SC10909, strain SC# 10909, 37° C.
  MIC: < 0.05 mg/L
[23]; SC12864, strain SC# 12864, 37° C.
  MIC: 1.6 mg/L (≈ 3.36 µM)
[24]
  MIC: > 100 mg/L
[25]
  MIC: 1.6 mg/L (≈ 3.36 µM)
[26]; SC9011, strain SC# 9011
  MIC: 1.6 mg/L (≈ 3.36 µM)
[26]; SC9610, strain SC# 9610
  MIC: 1.6 mg/L (≈ 3.36 µM)
[27]
  MIC: 3.1 mg/L (≈ 6.51 µM)
[28]; Homo sapiens, read-out: IC50 cytotoxicity, A2780S, in triplicate, each printed
  IC50: 0.001 mg/L (≈ 0.0021 µM)
[28]; in triplicate, each printed
  IC50 cytotoxicity: 0.002 mg/L and < 0.001 mg/L
[29]
  IC50: 23.5 µM
